Data on two compounds can be found in patent US6753348B2, “BTK inhibitors and methods for their identification and use” (Parker Hughes Institute, priority 1998, dated 2004).

In experiment [1] the test system is RBL-2H3 rat mast cells. Nature of the experiment: IgE/FcεRI receptor mediated leukotriene C4 release, RBL-2H3 mast cells. The conditions noted are these: RBL-2H3, IgE/DNP-BSA challenge, 30 min pre-incubation, 1-100 μM, N = 3-4, read-out: EC50 (mean ± SEM), inhibition of leukotriene C4 release. It is filed as cell-based. On the procedure: Mast Cell Cultures. RBL-2H3 mast cells were a gift from Dr. Reuben P. Siraganian (Laboratory of Microbiology and Immunology, National Institute of Dental Research, National Institute of Health). The cells were maintained as monolayer cultures in 75- or 150-cm^2 flask in Eagle's essential medium supplemented with 20% fetal calf serum. Human fetal livers (16 to 21 weeks of gestational age) were obtained from prostaglandin-induced human abortuses. Subsequently, single cell suspensions were prepared and mononuclear cells were isolated by centrifugation on Ficoll-Hypaque gradients as described (Malaviya, R., et al., (1999) J Biol Chem, 274, 27028-27038). Isolated cells were cultured for 8 weeks in the presence of 100 ng/ml rhSCF, 2 ng/ml rhIL-4 (Malaviya, R., et al., (1999) J Biol Chem, 274, 27028-27038; Xia, H. Z., et al., (1997) J Immunol, 159, 2911-2921). Culture medium was replaced with fresh medium once a week for the first 2 weeks and twice a week thereafter. All human tissue specimens were used following the guidelines of the Parker Hughes Institute Institutional Review Board on the Use of Human Subjects in Research for secondary use of pathologic or surgical tissue. At the end of the 8 weeks the fetal liver derived human mast cell culture contained 70-90 percent mast cells, based on toluidine blue and tryptase staining (Xia, H. Z., et al., (1997) J Immunol, 159, 2911-2921).
Stimulation of Mast Cells. RBL-2H3 rat mast were sensitized with monoclonal anti-DNP IgE antibody (0.24 mg/ml) for 1 h at 37° C. in a 48-well tissue culture plate. Unbound IgE was removed by washing the cells with PIPES-buffered saline. After washing, PIPES-buffered saline containing 1 mM calcium chloride was added to the monolayers of the RBL-2H3 cells. The cells were challenged with 20 ng/ml DNP-BSA for 30 min at 37° C. The plate was centrifuged at 200 g for 10 min at 4° C. Supernatants were removed and saved. Fetal liver-derived human mast cells were resuspended in culture medium at a cell density of 5×10^6/ml and sensitized with human IgE (150 μg/ml) for 3 h at 4° C. After sensitization the cells were washed with tyrode buffer containing 1 mM calcium and 1 mM magnesium and challenged with mouse monoclonal anti-human IgE (40 μg/ml) for 30 min at 37° C. To study the effect of test drugs, RBL-2H3 rat mast cells or human mast cells were incubated with the drugs at the indicated concentrations or vehicle for 30 min prior to antigen challenge.
Mediator Release Assay. Leukotriene C4 levels were estimated in cell free supernatants of mast cells by immunoassay (Malaviya, R. and Abraham, S. N., (1995) Methods Enzymol, 253, 27-43).
Mast cells release large amounts of leukotrienes upon IgE receptor ligation. Because of the reported ability of LFM as a mast cell inhibitor, we utilized 13 analogues of LFM (Table 1) and examined their effect on IgE/FcεERI receptor mediated mast cell leukotriene C4 release. RBL-2H3 cells, a mucosal mast cell line, were treated with 5 different concentrations of the compounds ranging from 1 μM to 100 μM or vehicle for 30 min before challenge with antigen (DNP-BSA) at 37° C. Leukotriene C4 release was quantitated in the extracellular medium employing a previously described ELISA (Malaviya, R. and Abraham, S. N., (1995) Methods Enzymol, 253, 27-43).

Experiment [2] has as its system OVA-sensitized and challenged mice. Briefly: Eosinophil infiltration in bronchoalveolar lavage of OVA challenged mice. The conditions noted are these: ovalbumin sensitized and challenged mice, pretreatment. It is filed as in vivo, mouse. The text has this:
FIG. 29: Inhibition of eosinophil infiltration in bronchoalveolar lavage of OVA challenged mice by LFM-A8. The lungs of the mice were lavaged after methacholine challenge and eosinophil numbers were counted. The results of eosinophils are expressed as percent of total cell counts. The data points represent the mean±SEM values obtained from 5-6 mice. *P<0.05 compared to vehicle-treated control, as determined by Student's t test.
Assessment of Eosinophil Infiltration. After airway responsiveness measurements, lungs were lavaged thoroughly with 1 ml saline. The lavage fluid was centrifuged and the supernatant was removed. The cell pellet was resuspended in saline containing 0.1% BSA to give a final cell concentration of 0.1×10^6/ml. Cytospin smears made from the cell suspension were stained with Wright-Giemsa and the number of eosinophils were counted.

Experiment [3] has as its system fetal liver derived human mast cells. Briefly: IgE/anti-IgE stimulated leukotriene C4 release, fetal liver derived human mast cells. The format is cell-based. The conditions noted are these: 100 μM, 30 min before anti-IgE challenge. The method, then:
FIG. 27: Effect of LFM and LFM-A8 on IgE receptor/Fc epsilon RI-mediated human mast cell leukotriene C4 release. IgE sensitized fetal liver derived human mast cells were stimulated by challenging with anti-IgE. To study the effect of the test compounds, mast cells were incubated with vehicle or 100 μM LFM or LFM-A8 prior to challenge with anti-IgE. Leukotriene C4 levels were measured in cell-free supernatants by ELISA. Vehicle treated 10^6 mast cells released 12.5±2.2 ng leukotriene C4. The results are expressed as percent of vehicle-treated controls (N=4). The data points represent the mean±SEM values. *P<0.05 compared to vehicle-treated control, as determined by Student's t test.
Mast Cell Cultures. RBL-2H3 mast cells were a gift from Dr. Reuben P. Siraganian (Laboratory of Microbiology and Immunology, National Institute of Dental Research, National Institute of Health). […]
We next sought to determine the effect of LFM-A8 on IgE/FcεRI-mediated human mast cell leukotriene C4 release and compare its potency with that of LFM. […] The Fc[…] receptors of fetal liver-derived human mast cells were crosslinked with anti-IgE and the resulting mast cell leukotriene C4 release was quantitated by ELISA (Malaviya, R. and Abraham, S. N., (1995) Methods Enzymol, 253, 27-43).

For experiment [4], the system named is B18.2, NALM-6 and ALL-1 cells. Nature of the experiment: Chemosensitization to ceramide and vincristine, DNA fragmentation. The format is cell-based. Particulars: 100 μM plus VCR 10 ng/ml or C2-CER 10 μM, 24 hours.
Experiment [5] deals with JAK2. Nature of the experiment: Tyrosine kinase assay JAK2 as named in text. Particulars: concentrations as high as 100 μg/ml (~278 μM). The format is biochemical.

For the compound `CC(O)=C(C#N)C(=O)Nc1cccc(C(F)(F)F)c1` [LFM-A8, α-Cyano-β-hydroxy-β-methyl-N-[3-(trifluoromethyl)phenyl]-propenamide], the concentration for a half-maximal effect (EC50) – broadly, the concentration at which the effect is half-maximal – in experiment [1] amounted to 28 ± 1 µM. The “reduction of numbers of eosinophils in BAL fluid” value in experiment [2] is given as 80%. Besides, the “leukotriene C4 release from IgE/anti-IgE-stimulated human mast cells” value in experiment [3] is reported as “significantly inhibited”.
In the case of `C/C(O)=C(\C#N)C(=O)Nc1cc(Br)ccc1Br` [LFM-A13, α-Cyano-β-hydroxy-β-methyl-N-(2,5-dibromophenyl)-propenamide], the “sensitivity to ceramide-induced and vincristine-induced apoptosis” value in experiment [4] was “enhances the sensitivity”. Moreover, the “effect on enzymatic activity of JAK2” value in experiment [5] is on record as “did not affect the enzymatic activity”.
